The source of these data is BindingDB's records for doi:10.1016/j.ejmech.2021.113474 (Yanbian University, 2021).

The assay has as its target Hypoxia-inducible factor 1-alpha (Homo sapiens, UniProt Q16665). The experiment in a line: Inhibition of hypoxia-induced HIF1alpha transcriptional activity in human Hep3B cells co-transfected with luciferase reporter plasmid containing six copies of HREs and pRL-CMV vector assessed as reduction in luciferase activity incubated for 24 hrs under hypoxic condition by HRE-dependent dual luciferase reporter gene assay.

Hypoxia-inducible factor 1-alpha, sequence (Q16665 whole entry): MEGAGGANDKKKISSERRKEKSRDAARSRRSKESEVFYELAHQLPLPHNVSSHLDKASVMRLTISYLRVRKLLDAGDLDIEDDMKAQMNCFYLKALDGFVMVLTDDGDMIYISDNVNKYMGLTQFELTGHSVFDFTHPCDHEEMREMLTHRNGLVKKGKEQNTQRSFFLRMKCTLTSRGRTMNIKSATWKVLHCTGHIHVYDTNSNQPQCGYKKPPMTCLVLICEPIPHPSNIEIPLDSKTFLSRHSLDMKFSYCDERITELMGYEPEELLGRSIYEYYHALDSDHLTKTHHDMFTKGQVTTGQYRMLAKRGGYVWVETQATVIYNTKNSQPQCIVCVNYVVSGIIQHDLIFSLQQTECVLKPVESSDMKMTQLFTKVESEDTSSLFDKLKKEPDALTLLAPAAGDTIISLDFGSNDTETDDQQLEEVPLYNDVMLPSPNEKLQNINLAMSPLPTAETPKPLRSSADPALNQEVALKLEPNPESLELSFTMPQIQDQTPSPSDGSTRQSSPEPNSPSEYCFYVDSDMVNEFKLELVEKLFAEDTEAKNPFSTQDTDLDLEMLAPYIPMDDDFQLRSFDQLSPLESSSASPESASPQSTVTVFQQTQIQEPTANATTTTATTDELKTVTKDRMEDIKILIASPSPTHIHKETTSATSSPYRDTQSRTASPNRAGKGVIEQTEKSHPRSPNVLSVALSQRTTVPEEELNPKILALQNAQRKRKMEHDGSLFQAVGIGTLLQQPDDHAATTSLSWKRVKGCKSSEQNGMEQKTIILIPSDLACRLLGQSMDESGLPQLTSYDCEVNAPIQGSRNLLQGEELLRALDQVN

As to `COc1ccc(-n2cc(CNC(=O)COC(=O)[C@]3(C)CC[C@]4(C)CC[C@]5(C)C6=CC=C7C(=CC(=O)C(O)=C7C)[C@]6(C)CC[C@@]5(C)[C@@H]4C3)nn2)cc1`, the IC50 is greater than 30000 nM.

Consider `CCOP(=O)(OCC)C(NC(=O)COC(=O)[C@]1(C)CC[C@]2(C)CC[C@]3(C)C4=CC=C5C(=CC(=O)C(O)=C5C)[C@]4(C)CC[C@@]3(C)[C@@H]2C1)c1ccc(C)cc1` (stereo not given in full), for which the IC50 is greater than 30000 nM.

`CC1=C(O)C(=O)C=C2C1=CC=C1[C@@]2(C)CC[C@@]2(C)[C@@H]3C[C@](C)(C(=O)OCC(=O)Nc4ccncc4)CC[C@]3(C)CC[C@]12C`: the IC50 came to 32000 nM.

`CC1=C(O)C(=O)C=C2C1=CC=C1[C@@]2(C)CC[C@@]2(C)[C@@H]3C[C@](C)(C(=O)OCCOc4cc(C)oc(=O)c4)CC[C@]3(C)CC[C@]12C`: the IC50 turned out to be 150 nM.

Regarding `CC1=C(O)C(=O)C=C2C1=CC=C1[C@@]2(C)CC[C@@]2(C)[C@@H]3C[C@](C)(C(=O)OCCOc4ccc5ccc(=O)oc5c4)CC[C@]3(C)CC[C@]12C`, the IC50 turned out to be 80 nM.

On to `CC1=C(O)C(=O)C=C2C1=CC=C1[C@@]2(C)CC[C@@]2(C)[C@@H]3C[C@](C)(C(=O)OCCOc4cccc5ncccc45)CC[C@]3(C)CC[C@]12C`, for which the IC50 is greater than 30000 nM.

Regarding `CC1=C(O)C(=O)C=C2C1=CC=C1[C@@]2(C)CC[C@@]2(C)[C@@H]3C[C@](C)(C(=O)OCC(=O)NCc4cn(-c5ccccc5)nn4)CC[C@]3(C)CC[C@]12C`, the half-inhibitory concentration (IC50) was determined as 600 nM.

Turning to `CCOP(=O)(OCC)C(NC(=O)COC(=O)[C@]1(C)CC[C@]2(C)CC[C@]3(C)C4=CC=C5C(=CC(=O)C(O)=C5C)[C@]4(C)CC[C@@]3(C)[C@@H]2C1)c1ccc(F)cc1` (stereo not given in full), the IC50 is greater than 30000 nM.

With `CC1=C(O)C(=O)C=C2C1=CC=C1[C@@]2(C)CC[C@@]2(C)[C@@H]3C[C@](C)(C(=O)OCC(=O)Nc4cccc5ncccc45)CC[C@]3(C)CC[C@]12C`, the IC50 stood at 360 nM.

Regarding `CC1=C(O)C(=O)C=C2C1=CC=C1[C@@]2(C)CC[C@@]2(C)[C@@H]3C[C@](C)(C(=O)OCC(=O)Nc4ccc5ncccc5c4)CC[C@]3(C)CC[C@]12C`, the IC50 is 240 nM.

Take `CC1=C(O)C(=O)C=C2C1=CC=C1[C@@]2(C)CC[C@@]2(C)[C@@H]3C[C@](C)(C(=O)OCC(=O)Nc4cc(C)on4)CC[C@]3(C)CC[C@]12C`: the IC50 was determined as 70 nM.

For the compound `CC1=C(O)C(=O)C=C2C1=CC=C1[C@@]2(C)CC[C@@]2(C)[C@@H]3C[C@](C)(C(=O)OCC(=O)Nc4ccc(F)nc4)CC[C@]3(C)CC[C@]12C`, the IC50 was 160 nM.

In the case of `C=c1c(O)c(O)cc2c1=CC=C1[C@@]2(C)CC[C@@]2(C)[C@@H]3C[C@](C)(C(=O)O)CC[C@]3(C)CC[C@]12C`, the IC50 was 250 nM.

Turning to `CC1=C(O)C(=O)C=C2C1=CC=C1[C@@]2(C)CC[C@@]2(C)[C@@H]3C[C@](C)(C(=O)OCCOc4ccc5cccnc5c4)CC[C@]3(C)CC[C@]12C`, the IC50 is 170 nM.

On to `CC1=C(O)C(=O)C=C2C1=CC=C1[C@@]2(C)CC[C@@]2(C)[C@@H]3C[C@](C)(C(=O)OCCOc4cnc5ccccc5c4)CC[C@]3(C)CC[C@]12C`, for which the IC50 was 50 nM.

`CC1=C(O)C(=O)C=C2C1=CC=C1[C@@]2(C)CC[C@@]2(C)[C@@H]3C[C@](C)(C(=O)OCC(=O)Nc4ccnc5ccccc45)CC[C@]3(C)CC[C@]12C`: the IC50 amounted to 490 nM.

Turning to `CCOP(=O)(OCC)C(NC(=O)COC(=O)[C@]1(C)CC[C@]2(C)CC[C@]3(C)C4=CC=C5C(=CC(=O)C(O)=C5C)[C@]4(C)CC[C@@]3(C)[C@@H]2C1)c1ccc(OC)cc1` (stereo not given in full), the IC50 was determined as 160 nM.

For the compound `CCOP(=O)(OCC)C(NC(=O)COC(=O)[C@]1(C)CC[C@]2(C)CC[C@]3(C)C4=CC=C5C(=CC(=O)C(O)=C5C)[C@]4(C)CC[C@@]3(C)[C@@H]2C1)c1ccccc1` (stereo not given in full), the IC50 amounted to 240 nM.

For `CC1=C(O)C(=O)C=C2C1=CC=C1[C@@]2(C)CC[C@@]2(C)[C@@H]3C[C@](C)(C(=O)OCC(=O)NCc4cn(-c5ccc(Cl)cc5)nn4)CC[C@]3(C)CC[C@]12C`, the IC50 is greater than 30000 nM.

In the case of `CC1=C(O)C(=O)C=C2C1=CC=C1[C@@]2(C)CC[C@@]2(C)[C@@H]3C[C@](C)(C(=O)OCC(=O)NCc4cn(-c5ccc(C)cc5)nn4)CC[C@]3(C)CC[C@]12C`, the IC50 was greater than 30000 nM.

Consider `CC1=C(O)C(=O)C=C2C1=CC=C1[C@@]2(C)CC[C@@]2(C)[C@@H]3C[C@](C)(C(=O)OCC(=O)NCc4cn(-c5ccc(Cl)c(Cl)c5)nn4)CC[C@]3(C)CC[C@]12C`, for which the IC50 came out at 120 nM.

Consider `CC1=C(O)C(=O)C=C2C1=CC=C1[C@@]2(C)CC[C@@]2(C)[C@@H]3C[C@](C)(C(=O)OCC(=O)Nc4ccc(F)cn4)CC[C@]3(C)CC[C@]12C`, for which the IC50 was determined as 250 nM.

Turning to `CC1=C(O)C(=O)C=C2C1=CC=C1[C@@]2(C)CC[C@@]2(C)[C@@H]3C[C@](C)(C(=O)OCC(=O)Nc4cnc5ccccc5c4)CC[C@]3(C)CC[C@]12C`, the IC50 is 90 nM.

In the case of `CC1=C(O)C(=O)C=C2C1=CC=C1[C@@]2(C)CC[C@@]2(C)[C@@H]3C[C@](C)(C(=O)OCC(=O)Nc4cccc5cccnc45)CC[C@]3(C)CC[C@]12C`, the half-inhibitory concentration (IC50) stood at 350 nM.

Consider `CC1=C(O)C(=O)C=C2C1=CC=C1[C@@]2(C)CC[C@@]2(C)[C@@H]3C[C@](C)(C(=O)OCCOc4cc(=O)oc5ccccc45)CC[C@]3(C)CC[C@]12C`, for which the half-maximal inhibitory concentration (IC50) was 150 nM.
